Measured values reported in patent publication US11109593B2, “Isoxazolin-5-one derivative and herbicide containing same as active ingredient” (HOKKO CHEMICAL INDUSTRY CO., LTD., priority 2017, dated 2021).

Columns and labels:
Type in all cases: in vivo
[1] = test system: broad leaf weeds (Lindernia pyxidaria and Monochoria vaginalis); assay: Test Example 2: herbicidal effect test by treatment during growing period in paddy rice cultivation (seven days after seeding); details: 120 g/10a active ingredient, assessed 14 days after treatment, dry weight vs untreated area; for pest or weed control at 1200 g/ha: 336 h
Summary of the method: (§1)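 Herbicidal rate (%) = {1 − treated/untreated mean plant dry weight} × 100, assessed in duplicate 14 days post-treatment. Emulsion formulations were diluted in water and dropped onto flooded (about 3 cm) paddy pots 7 days after seeding, giving 120 g a.i. per 10 ares. Plants were grown in a glass greenhouse.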

[2] = test system: Scirpus juncoides; assay: as above; details: 120 g/10a active ingredient, assessed 14 days after treatment, dry weight vs untreated area
Summary of the method: as §1

[3] = test system: Echinochloa crus-galli; assay: as above; details: 120 g/10a active ingredient, assessed 14 days after treatment, dry weight vs untreated area
Summary of the method: as §1

[4] = test system: broad leaf weeds (Lindernia pyxidaria and Monochoria vaginalis); assay: Test Example 1: herbicidal effect test by treatment of rice paddy soil (immediately after seeding); details: 120 g/10a active ingredient, dry weight vs untreated area, 14 days after treatment; for pest or weed control at 1200 g/ha: 336 h
Summary of the method: (§2)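 Application occurs immediately after seeding, with diluted emulsion added to paddy water (about 3 cm deep) over puddled, fertilized soil at 120 g active ingredient per 10 ares. Herbicidal rate is calculated from mean dry weight against untreated controls 14 days later.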

[5] = test system: Scirpus juncoides; assay: as above; details: 120 g/10a active ingredient, dry weight vs untreated area, 14 days after treatment
Summary of the method: as §2

[6] = test system: Echinochloa crus-galli; assay: as above; details: 120 g/10a active ingredient, dry weight vs untreated area, 14 days after treatment
Summary of the method: as §2

[7] = test system: Amaranthus viridis; assay: Test Example 3: herbicidal effect test by treatment of dry field farming soil (one day after seeding); details: 120 g/10a active ingredient, evaluated 14 days after treatment
Summary of the method: (§3)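 Herbicidal rate (%) equals 1 minus treated/untreated mean plant dry weight, times 100, taken 14 days after treatment in duplicate pots. Emulsion diluted in water was applied at 100 L per 10 ares (120 g a.i. per 10 ares) one day after sowing 20 seeds per species into the top 1 cm of alluvial soil.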

[8] = test system: Chenopodium album; assay: as above; details: 120 g/10a active ingredient, evaluated 14 days after treatment
Summary of the method: as §3

[9] = test system: Echinochloa crus-galli; assay: as above; details: 120 g/10a active ingredient, evaluated 14 days after treatment
Summary of the method: as §3

[10] = test system: southern crabgrass; assay: as above; details: 120 g/10a active ingredient, evaluated 14 days after treatment
Summary of the method: as §3

[11] = test system: Amaranthus viridis; assay: Test Example 4: herbicidal effect test by treatment of leave and stem in dry field farming (seven days after seeding); details: 120 g/10a active ingredient, emulsion sprayed seven days after seeding, evaluated 14 days after treatment
Summary of the method: (§4)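 Weeds were seeded at 20 seeds per species into the top 1 cm of alluvial upland soil in pots, then sprayed 7 days after seeding with water-diluted emulsifiable concentrate at 100 L/10 a, giving 120 g active ingredient/10 a. Duplicate pots; herbicidal rate (%) was 14 days post-treatment, from dry weight versus untreated.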

[12] = test system: Chenopodium album; assay: as above; details: 120 g/10a active ingredient, emulsion sprayed seven days after seeding, evaluated 14 days after treatment
Summary of the method: as §4

[13] = test system: Echinochloa crus-galli; assay: as above; details: 120 g/10a active ingredient, emulsion sprayed seven days after seeding, evaluated 14 days after treatment
Summary of the method: as §4

[14] = test system: southern crabgrass; assay: as above; details: 120 g/10a active ingredient, emulsion sprayed seven days after seeding, evaluated 14 days after treatment
Summary of the method: as §4

Row | SMILES | Herbicidal rate (%) Lindernia pyxidaria ([1]; Lindernia pyxidaria) | Herbicidal rate (%) Monochoria vaginalis ([1]; Monochoria vaginalis) | Herbicidal rate (%) Scirpus juncoides [2] | Herbicidal rate (%) Echinochloa crus-galli [3] | Herbicidal rate (%) Lindernia pyxidaria ([4]; Lindernia pyxidaria) | Herbicidal rate (%) Monochoria vaginalis ([4]; Monochoria vaginalis) | Herbicidal rate (%) Scirpus juncoides [5] | Herbicidal rate (%) Echinochloa crus-galli [6] | herbicidal rate, Amaranthus viridis [7] | herbicidal rate, Chenopodium album [8] | herbicidal rate, Echinochloa crus-galli [9] | herbicidal rate, southern crabgrass [10] | herbicidal effect (herbicidal rate), Amaranthus viridis [11] | herbicidal effect (herbicidal rate), Chenopodium album [12] | herbicidal effect (herbicidal rate), Echinochloa crus-galli [13] | herbicidal effect (herbicidal rate), southern crabgrass [14] | other results
1 | CCC(C)n1oc(=O)c(Cc2ccccc2N(S(=O)(=O)CC)S(=O)(=O)C(F)(F)F)c1C (stereo not shown) [Compound 1-913] | 90% | 90% | 90% | 90% | 90% | 90% | 90% | 90% | 90% | 90% | 90% | 90% | 40% | 40% | 90% | 90% | 
2 | Cc1c(Cc2ccccc2NS(=O)(=O)C(F)(F)F)c(=O)on1CC(C)C [Compound 1-105, 1,1,1-trifluoro-N-[2-[(2-isobutyl-3-methyl-5-oxoisoxazol-4-yl)methyl]phenyl]methanesulfonamide] |  |  |  |  |  |  |  |  |  |  |  |  |  |  |  |  | pest or weed control at 1200 g/ha ([1]; Lindernia pyxidaria, read-out: herbicidal rate (%) Lindernia pyxidaria): 90%; pest or weed control at 1200 g/ha ([1]; Monochoria vaginalis, read-out: herbicidal rate (%) Monochoria vaginalis): 90%; pest or weed control at 1200 g/ha ([2]; Schoenoplectiella juncoides, 336 h, read-out: herbicidal rate (%) Scirpus juncoides): 90%; pest or weed control at 1200 g/ha ([3]; Echinochloa crus-galli, 336 h, read-out: herbicidal rate (%) Echinochloa crus-galli): 90%; pest or weed control at 1200 g/ha ([4]; Monochoria vaginalis, read-out: Herbicidal rate (%) Monochoria vaginalis): 100%; pest or weed control at 1200 g/ha ([4]; in Lindernia, Lindernia pyxidaria, read-out: Herbicidal rate (%) Lindernia pyxidaria): 100%; pest or weed control at 1200 g/ha ([5]; in Schoenoplectiella juncoides, 336 h, read-out: Herbicidal rate (%) Scirpus juncoides): 90%; pest or weed control at 1200 g/ha ([6]; in Echinochloa crus-galli, 336 h, read-out: Herbicidal rate (%) Echinochloa crus-galli): 90%; pest or weed control at 1200 g/ha ([7]; Amaranthus viridis, 336 h, read-out: herbicidal rate, Amaranthus viridis): 70%; pest or weed control at 1200 g/ha ([8]; Chenopodium album, 336 h, read-out: herbicidal rate, Chenopodium album): 50%; pest or weed control at 1200 g/ha ([9]; Echinochloa crus-galli, 336 h, read-out: herbicidal rate, Echinochloa crus-galli): 60%; pest or weed control at 1200 g/ha ([10]; Digitaria ciliaris, 336 h, read-out: herbicidal rate, southern crabgrass): 90%; pest or weed control at 1200 g/ha ([11]; Amaranthus viridis, 336 h, read-out: herbicidal effect (herbicidal rate), Amaranthus viridis): 50%; pest or weed control at 1200 g/ha ([12]; Chenopodium album, 336 h, read-out: herbicidal effect (herbicidal rate), Chenopodium album): 40%; pest or weed control at 1200 g/ha ([13]; Echinochloa crus-galli, 336 h, read-out: herbicidal effect (herbicidal rate), Echinochloa crus-galli): 90%; pest or weed control at 1200 g/ha ([14]; Digitaria ciliaris, 336 h, read-out: herbicidal effect (herbicidal rate), southern crabgrass): 50%
3 | Cc1c(Cc2ccccc2NS(=O)(=O)C(F)(F)F)c(=O)on1C(C)C1CC1 (stereo not shown) [Compound 1-144] | 50% | 80% | 90% | 90% | 90% | 100% | 90% | 100% | 0% | 0% | 70% | 80% | 50% | 0% | 90% | 90% | 
4 | COCC(C)n1oc(=O)c(Cc2ccccc2N(C(=O)OCC(C)C)S(=O)(=O)C(F)(F)F)c1C (stereo not shown) [Compound 1-675] | 90% | 90% | 90% | 90% | 90% | 90% | 90% | 90% | 90% | 90% | 90% | 90% | 40% | 40% | 90% | 90% | 
